Data as given in US8288378B2, “Phosphoinositide modulation for the treatment of neurodegenerative diseases” (The Trustees of Columbia University in the City of New York, priority 2006, dated 2012).

What was measured:
[1] = test system: CA1 region of the hippocampus; assay: Long-term potentiation in adult hippocampal slices (CA1, tetanic stimulation of Schaeffer collateral pathway); parameters: species or system mouse
Source text: Long-term potentiation (LTP) was induced in the CA1 region of the hippocampus through tetanic stimulation of the Schaeffer collateral pathway.

[2] = test system: PC12 cells; assay: PIP2 sensor GFP-PHPLCδ1 plasma membrane/cytosol localization; type: cell-based; details: for GFP-PHPLCδ1 probe localization: oAβ42, 2 μM ionomycin, Aβ42Rev
Procedure: Confocal microscopy. […] Cells have been analyzed after being treated for different time lengths: 0, 10 minutes, 30 minutes and 120 minutes. Cells were washed in phosphate buffer and fixed with 4 percent paraformaldehyde. Confocal z-stack images (0.5 μm) of PC12 cells were obtained using Nikon EZ-C1.2.30 confocal microscope, (×100) oil immersion objective. Quantification of GFP intensity was calculated using the ImageJ software: for each cell in a given image, a line intensity profile across the cell was obtained. The relative decrease in plasma membrane localization was calculated as the ratio between the plasma membrane fluorescence intensity and the average cytosolic fluorescence intensity. The average of the ratio was reported in the graph.
PC12 cells were cultured in RPMI media supplemented with 1 mM glutamine, 5% FBS, 10% horse serum and penicillin, streptomycin. The day before transfection, PC12 cells were split 50% and plated on poly-D-lysine coated coverslips. Cells were transfected with Lipofectamine 2000 as per the manufacturer's protocol with GFP-PHPLCδ1. After 16-24 hours, cells were treated as indicated for 30 minutes in conditioned media. Cells were then briefly washed in PBS and fixed for 20 minutes in 4% paraformaldehyde. Cells were then washed in 0.1M glycine and twice in PBS for 5 minutes each. Cells were mounted using Vectashield. Images were collected using a con-focal microscope and the plot profile was analyzed with ImageJ 1.37v. The ratio of the fluorescence profiles of the plasma membrane and the cytosol were calculated and deemed to represent translocation of the PIP2 probe GFP-PH-PLCδ1 (72).

[3] = target: T1, PI4KIIα (Homo sapiens, UniProt Q9BTU6); assay: PI4KIIα lipid kinase activity assay with TLC analysis; type: biochemical
T1 construct: made in house
Procedure: Lipid kinase assay and thin layer chromatography. In vitro lipid phosphorylation assays on post-nuclear supernatant of HEK293, Neuro2a or CHO cells expressing either WT or FAD mutant PS1 and PS2, were carried out as previously described (70). Briefly, 100 μg protein from the supernatant were mixed with 2.5 μl ATP (final: 50 μM), 2.5 μl CaCl2 (final: 50 μM), 27.0 μl EGTA-free kinase buffer (25 mM Hepes, 100 mM KC1, 2.5 mM MgCl2) and 0.5 μl gamma ATP (final 100 nCi/μl) and samples incubated at 37° C. for 15 min. Reaction products were extracted and analyzed by thin layer chromatography (TLC) silica plate (solvent: 64—acetone 30—methanol 24—acetic acid 32—water 14 (v/v)) and visualized by autoradiography.
Mammalian expression of a construct encoding either wild-type (IIα) or the kinase-dead mutant (IIα-KD) forms of PI4KIIα (HA-tagged) were transfected into CHO cells. The enzyme was immuno-isolated using anti-HA affinity beads from cell extracts. The purified PI4KIIα proteins were subjected to a lipid kinase activity assay and TLC analysis using PI as a substrate (FIG. 10C). PI4KIIα, but not the kinase-dead mutant, enhanced the incorporation of [γ32P]-ATP into PIP (FIG. 10C,D).

[4] = target: T2, PIPK1γ (Homo sapiens, UniProt O60331); assay: PIPK1γ activity assay; type: biochemical; details: 50 μM
T2 construct: GST
Source text: Thus, (20S)Rg3 serves as an activator of PI4KIIα, resulting in the increase in the steady-state levels of PIP and subsequently the levels of PIP2.

[5] = target: T3, Aβ42 (Homo sapiens, UniProt P05067); assay: Oligomerization process of Aβ42
T3 construct: Synthetic Aβ (1-42) peptide was purchased from American Peptide; purchased American Peptide (Sunnyvale, Calif.); host or cells: synthetic peptide

[6] = test system: APP/PS1 mice; assay: Radial-arm water-maze in APP/PS1 mice; type: in vivo, mouse; details: i.p., 10 mg/kg, three weeks, 3 month-old APP/PS1 mice
Procedure: Therefore experiments were performed to determine whether (20S)Rg3 can improve the memory impairments in an AD mouse model. (20S)Rg3 was administered for three weeks (i.p., 10 mg/kg) to 3 month-old APP/PS1 mice and age-matched littermate controls. Mice were then subjected to behavioral testing in the radial-arm water-maze paradigm (74).

[7] = test system: PI4KIIα-overexpressing cells; assay: Aβ42 levels in PI4KIIα-overexpressing cells; type: cell-based
Procedure: Since (20S)Rg3 potentiates PI4KIIα activity (conversion from PI to PIP), it was determined whether the increase in PI4KIIα activity exerts similar effects on Aβ42 generation as observed in the (20S)Rg3-treated cells. Overexpression of PI4KIIα leads to increased protein levels of PI4KIIα and increased PI 4-kinase activity as measured by lipid kinase assay. […] Thus, increased levels of the (20S)Rg3 target protein PI4KIIα may amplify the effects of the Aβ42-lowering activity of (20S)Rg3.

[8] = test system: PI4KIIα +/− ES-derived neurons; assay: Aβ42 generation and PIP synthesis in PI4KIIα +/− ES cell-derived pyramidal neurons; type: cell-based, mouse
Source text: Mouse embryonic stem (ES) cell-derived pyramidal neurons that harbor the heterozygote knockout of the PI4KIIα allele (PI4KIIα +/−; purchased from Sanger Institute Gene Trap Resource; http://www.sanger.ac.uk/PostGenomics/genetrap/) were then used to further study the role for PI4KIIα in Aβ42 generation in neurons. Differentiation and morphology of pyramidal neurons from PI4KIIα heterozygote (+/−) ES cells were indistinguishable from those from match wild-type ES cells (representative neuronal staining is shown in FIGS. 14A and B). […] Aβ42 generation was substantially elevated in the neurons derived from PI4KIIα +/−ES cells.

[9] = test system: HeLa cells; assay: Lipid raft fractionation and Western blot of PS1 C-terminal fragments; type: cell-based
[10] = test system: mouse cortical neurons; assay: Phosphoinositide / anionic phospholipid levels in cultured cortical neurons (HPLC with suppressed conductivity); details: for PIP2 levels after Ca2+ ionophore: 2 μM; for effect of Ca2+ chelation on oAβ42-induced PIP2 decrease: oAβ42 for 60 min, EGTA 2 mM
Procedure: HPLC Lipid Analysis. Cells grown in 15-cm^2 dishes were scraped in 0.75 ml ice-cold MeOH: 1M HCl (1:1) supplemented with 2 mM AlCl3. Lipids were then extracted and deacylated by incubation with 0.5 ml methylamine reagent (MeOH:40% methylamine in water:n-butanol:water 47:36:9:8) at 50° C. for 45 min. The aqueous phase was dried, resuspended in 0.5 ml of n-butanol: petroleum ether:ethyl formate (20:40:1), and extracted twice with an equal volume of water. Aqueous extracts were dried, resuspended in water, and subjected to anion-exchange HPLC on an Tonpac AS11-HC column (Dionex). Negatively charged glycerol head groups were eluted with a 1.5-86 mM KOH gradient and detected online by suppressed conductivity 75 in a Dionex Ion Chromatography system equipped with an ASRS-ultra II self-regenerating suppressor. Individual peaks were identified and peak areas were calculated using the Chromeleon software (Dionex). Using deacylated anionic phospholipids as standards, lipid masses were calculated and expressed as molar fractions of total anionic phospholipids present in the sample (see Ref. 69).
2-week-old, cultured mouse cortical neurons were incubated with three different Aβ42 preparations (monomers, soluble oligomers, and fibrils) at concentrations of 200 nM. The levels of PIP2 were measured by conductance-based HPLC quantitation.
This preparation contains a mixture of monomers, trimers and tetramers as well as traces of dimers and high molecular weight oligomers, as described previously. Potential effects of this preparation were investigated either after an acute (0-120 min) or a subchronic treatment (72 h). The levels of phosphoinositides as well as a variety of other anionic phospholipids were measured and quantified in neuronal extracts using HPLC combined with suppressed conductivity detection (69, 71).
Cell culture. […] Primary cultures from cortical neurons were generated from newborn mice as described (126). Briefly, cortices were dissected out, trypsinized for 45 minutes, and then dissociated with a Pasteur pipette and plated on poly-ornithine coated 10 mm dishes at a density of 25,000 cells/cm^2 in Neurobasal-A medium containing 1 mM kyneurenic acid to reduce enhanced synaptic transmission due to the high density of the cultures.
Lipid measurements. Cultures were scrapped on a methanol:1N HCl 1:1 buffer supplemented with 2 mM AlCl3. Ice-cold chloroform (0.4 ml) was then added, and samples were vortexed for 1 min. The solvent phase was washed with 1 ml. methanol:2 mM oxalic acid (1:0.9 vol/vol) and dried under a flow of nitrogen.

[11] = test system: N2a cells stably expressing human APP with the Swedish mutation; assay: Aβ42/Aβ40 production in N2a cells stably expressing human APP with the Swedish mutation; type: cell-based; details: 6 hours treatment, read-out: EC50, inhibition of production of Aβ42 as well as Aβ40
Procedure: N2a cells stably expressing human APP with the Swedish mutation were grown in DMEM-supplemented with 50% Opti-MEM, 10% FBS, penicillin, streptomycin, and G418. Cells were grown to 80-90% confluence and treated for 6 hours with the drugs as indicated in 900 μl media. The conditioned media was harvested and centrifuged for 15 minutes at 14,000 rpm in a table top Eppendorf centrifuge 5417R. The adherent cells were washed two times with ice cold PBS and lysed in 100 μl super IP buffer (10 mM Tris Cl, pH, 7.4, 150 mM NaCl, 2 mM EDTA, 1% Triton X-100, 0.25% NP-40, protease inhibitors). Cell lysates were scraped and incubated for 15 minutes on ice before centrifugation at 14,000 rpm in a table-top Eppendorf centrifuge 5417R. Cleared conditioned media and lysates were stored at −80° C. until use. Aβ 42 and Aβ40 were quantified with the commercially available kit from Biosource as indicated in the protocol. Protein concentration of the cell lysate was determined using the BCA assay from Pierce.
KU-55933 is a small molecule inhibitor of ATM kinase as well as PI3K family members (FIG. 22). […] Aβ 42 and Aβ40 were quantified with the commercially available kit from Biosource as indicated in the protocol. Protein concentration of the cell lysate was determined using the BCA assay from Pierce.

[12] = test system: N2a cells stably expressing APP harboring the Swedish mutation; assay: Caspase 3 cleavage Western blot; type: cell-based; details: 6 hours; concentrations which decreased Aβ42 generation
Procedure: Western blot analysis of full length APP and caspase3 was conducted on 30 μg of lysate collected as described above from N2a cells stably expressing APP harboring the Swedish mutation. Cells were treated for 6 hours with KU-55933 at concentrations indicated. APP was detected using the LN27 antibody from Zymed and caspase 3 full length and cleavage product were probed using the caspase 3 antibody from Cell Signaling Technology.

[13] = previous studies (refs 113, 114); cited from earlier work

T1 sequence (Q9BTU6 whole entry): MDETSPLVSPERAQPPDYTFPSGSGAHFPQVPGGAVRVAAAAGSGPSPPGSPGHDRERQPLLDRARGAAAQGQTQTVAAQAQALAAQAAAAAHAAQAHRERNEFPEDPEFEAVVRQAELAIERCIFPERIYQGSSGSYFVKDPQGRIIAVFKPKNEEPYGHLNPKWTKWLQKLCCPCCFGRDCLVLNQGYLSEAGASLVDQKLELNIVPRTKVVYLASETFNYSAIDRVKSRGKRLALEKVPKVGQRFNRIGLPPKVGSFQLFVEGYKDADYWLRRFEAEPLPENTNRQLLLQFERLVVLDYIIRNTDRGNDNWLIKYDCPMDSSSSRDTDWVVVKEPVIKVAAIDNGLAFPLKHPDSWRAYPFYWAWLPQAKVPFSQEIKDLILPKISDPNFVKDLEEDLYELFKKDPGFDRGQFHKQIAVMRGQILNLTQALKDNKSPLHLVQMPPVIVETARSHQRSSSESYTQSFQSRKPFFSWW
T3 sequence (P05067 672-713 limits assumed): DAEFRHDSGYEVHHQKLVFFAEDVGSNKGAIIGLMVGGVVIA
T2 sequence (O60331 whole entry): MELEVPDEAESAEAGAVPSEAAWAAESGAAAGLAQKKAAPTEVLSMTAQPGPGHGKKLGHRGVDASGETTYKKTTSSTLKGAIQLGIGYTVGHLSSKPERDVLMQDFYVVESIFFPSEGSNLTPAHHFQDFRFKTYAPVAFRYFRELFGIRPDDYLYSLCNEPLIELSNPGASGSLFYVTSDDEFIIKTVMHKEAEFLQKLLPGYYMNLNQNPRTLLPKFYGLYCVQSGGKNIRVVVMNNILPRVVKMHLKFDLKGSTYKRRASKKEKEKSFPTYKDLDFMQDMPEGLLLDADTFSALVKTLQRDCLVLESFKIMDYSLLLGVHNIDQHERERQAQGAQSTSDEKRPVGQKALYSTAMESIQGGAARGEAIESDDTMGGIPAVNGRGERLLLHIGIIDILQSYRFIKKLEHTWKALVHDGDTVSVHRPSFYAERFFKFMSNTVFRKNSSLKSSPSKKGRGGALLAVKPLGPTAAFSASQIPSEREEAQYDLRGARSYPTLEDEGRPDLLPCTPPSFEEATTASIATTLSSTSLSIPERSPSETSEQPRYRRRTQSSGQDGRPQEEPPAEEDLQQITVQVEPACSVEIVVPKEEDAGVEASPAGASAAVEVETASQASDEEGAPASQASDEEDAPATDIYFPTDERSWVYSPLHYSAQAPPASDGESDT

## CC(C)=CCC[C@](C)(O)[C@H]1CC[C@]2(C)[C@@H]1[C@H](O)C[C@@H]1[C@@]3(C)CC[C@H](O[C@@H]4O[C@H](CO)[C@@H](O)[C@H](O)[C@H]4O[C@@H]4O[C@H](CO)[C@@H](O)[C@H](O)[C@H]4O)C(C)(C)[C@@H]3CC[C@]12C [(20S)Rg3]
[1]; 10 μM
  LTP on co-incubation with Aβ oligomers: resulted in normal LTP
[2]; co-incubation with Aβ oligomers
  Aβ oligomer-induced loss of plasma membrane fluorescence: prevented the loss of the plasma membrane fluorescence
[3]; 50 μM with purified enzyme
  PI4KIIα activity: enhanced PI4KIIα activity in a dose-dependent manner
[3]; both enzymes incubated with compound
  PIP and PIP2 formation with both PI4KIIα and PIPK1γ: led to an increase of both PIP and PIP2
[4]
  activity of PIPK1γ: did not confer any detectable effects
[5]
  effect on oligomerization process of Aβ42: no effects on the oligomerization process of Aβ42
[6]
  spatial working memory deficits: dramatically improved spatial working memory deficits
[7]
  Aβ42 reduction: conferred additive effects on Aβ42 reduction
[8]; PI4KIIα +/− ES-derived neurons
  ability to reduce Aβ42: no longer able to reduce Aβ42
[8]; PI4KIIα +/− clonal lines AC37 and AD14
  compound-induced PIP synthesis: substantially reduced
[9]; HeLa cells
  lipid raft-associated PS1-CTF levels: significantly reduced
  total PS-CTF levels: unchanged
[10]; 100 μM
  steady-state levels of PIP and PIP2: increased steady-state levels of both PIP and PIP2
[10]; cells pre-incubated with compound
  Aβ42 oligomer-induced PIP2 reduction, pre-incubation: blocked efficiently
[10]; cultured neurons
  oAβ42-induced increase in PA levels: inhibited the increase in PA levels
[10]; treatment / co-treatment of cultured neurons
  Aβ42 oligomer-induced reduction in PIP2 levels: inhibited the reduction in PIP2 levels

## CNc1ccc2oc(C[C@H]3O[C@@]4(CC[C@H]3C)O[C@H]([C@H](C)C(=O)c3ccc[nH]3)[C@H](C)C[C@H]4C)nc2c1C(=O)O [A23187]
[10]
  PIP2 levels after Ca2+ ionophore: caused PIP2 levels to decrease

## CC(=O)OCOC(=O)CN(CC(=O)OCOC(C)=O)c1ccccc1OCCOc1ccccc1N(CC(=O)OCOC(C)=O)CC(=O)OCOC(C)=O [BAPTA-AM]
[10]
  effect of Ca2+ chelation on oAβ42-induced PIP2 decrease: blocked the action of oAβ42
[10]; vehicle-treated and oAβ42-treated cortical neurons
  increase in the levels of PtdIns(4,5)P2: 2 fold

## O=C(O)CN(CCOCCOCCN(CC(=O)O)CC(=O)O)CC(=O)O [EGTA]
[10]
  effect of Ca2+ chelation on oAβ42-induced PIP2 decrease: prevented oAβ42 from decreasing PIP2 levels

## O=c1cc(-c2cccc3c2Sc2ccccc2S3)oc(N2CCOCC2)c1 [KU-55933]
[2]; 30 minutes, concentration comparable to EC50 for Aβ42
  depletion of PIP2 caused by Aβ42 oligomers: rescued the depletion of PIP2
[11]
  EC50: 3.5 µM
[12]
  caspase 3 cleavage: did not induce caspase 3 cleavage
[13]
  cytotoxicity: found not to be cytotoxic

## COc1ccc2c(c1)CC[C@@H]1[C@@H]2CC[C@]2(C)[C@@H](NCCCCCCN3C(=O)C=CC3=O)CC[C@@H]12 [U73122]
[2]; oAβ42 60 min, inhibitor 0.5 μM
  PIP2 levels on oAβ42 treatment in presence of PLC inhibitor: PIP2 levels remained unaffected by oAβ42

## C[C@H](CCC(=O)O)C[C@H](C)C[C@H](C)C(=O)/C=C(\O)[C@H](C)C[C@H](C)C/C=C/[C@@H](C)[C@@H](O)[C@@H](C)[C@@H](O)C[C@@H]1CC[C@@](C)([C@H]2CC[C@@](C)([C@@H](C)O)O2)O1 [ionomycin]
[2]
  GFP-PHPLCδ1 probe localization: mimicked
[10]
  PIP2 levels after Ca2+ ionophore: caused PIP2 levels to decrease

## CSc1ccc(/C=C2/C(C)=C(CC(=O)O)c3cc(F)ccc32)cc1 [sulindac sulfide]
[9]
  association of PS1 fragments with lipid rafts: did not confer any effects

## oAβ42: crude oligomer preparation made from synthetic Aβ42 peptides
[1]; control (Synj1+/+) slices
  effect on LTP: partially impaired LTP
[2]
  GFP-PHPLCδ1 probe localization: significant disappearance of the probe from the plasma membrane
[10]; 200 nM
  ATP levels: normal
[10]; 200 nM, 2-week-old cultured mouse cortical neurons
  effect on PA levels: up-regulated
[10]; 3-day treatment, versus vehicle
  number of apoptotic nuclei: comparable or slightly less
[10]; 3-day treatment, versus vehicle-treated neurons
  amount of pyknosis: undistinguishable from that occurring in vehicle-treated neurons
[10]; crude oligomer preparation of synthetic Aβ42, after 120 min
  levels of PtdA: approximately 130 % of control
